Measured values published in publication PMC11292626, “5-Fluoroindole Reduces the Bacterial Burden in a Murine Model of Mycobacterium tuberculosis Infection” (ACS Omega, 2024).
≈ marks a conversion by molar mass, not a printed value. Entries after “also recorded” stand apart in the source; their conditions may differ. Read-outs that look alike come from different tables or passages of the source.

Assays:
[1] = system: Mycobacterium tuberculosis H37Rv Strain; assay: MIC by resazurin reduction microplate assay (REMA), H37Rv; assay type: cell-based; conditions: Mtb H37Rv, REMA
[2] = Cellular viability (MTT and neutral red uptake), HepG2; assay type: cell-based; conditions: human, HepG2 cells; 72 h of exposure; MTT and neutral red assays
Method: (§1) To assess the selectivity and potential toxicity of 5-FI, the effects on the viability of both HepG2 and Vero mammalian cell lines were evaluated. Cell viability was measured after 72 h of incubation with concentrations of 2, 5, and 20 μM of the compound. […] Two methods were used to assess the cell integrity: the MTT assay, which evaluates mitochondrial viability, and the neutral red assay, which assesses lysosomal functionality.
(§2) To determine the cellular viability, the cells were incubated with the 5-fluoro-1H-indole compound with 3-(4,5-dimethylthiazol-2-yl)-2,5-diphenyl-2H-tetrazolium bromide (MTT)[29] and neutral red uptake (NRU)[30] methods. […] The formed formazan crystals were dissolved with 100 μL of DMSO, and the absorbance of this solution was measured at 595 nm using an EZ Read 400 microplate reader (Biochrom, Holliston, MA, USA). The absorbance of the formazan crystals, diluted with DMSO, was directly proportional to the number of live cells with active mitochondria, corresponding to their viability. The mean value of absorbance of control wells was taken as 100% viability, and the values of treated cells were calculated as the percentage of vehicle control containing 0.5% DMSO. […]

[3] = system: HepG2 cells; assay: as above; assay type: cell-based; conditions: 2, 5 and 20 μM, 72 h; MTT and neutral red; listed as 5-FI
Method: as §1, §2

[4] = Cellular viability (MTT and neutral red uptake), Vero; assay type: cell-based; conditions: African green monkey, Vero cells; 72 h of exposure; MTT and neutral red assays
Method: as §1, §2

[5] = system: Vero cells; assay: as above; assay type: cell-based; conditions: 2, 5 and 20 μM, 72 h; MTT and neutral red; listed as 5-FI
Method: as §1, §2

[6] = Aqueous solubility at different pHs; assay type: physicochemical; conditions: thermodynamic from solid, 25 °C for 4 h
Method: The compound was weighed (1 mg) and solubilized in phosphate-buffered saline (PBS, pH 7.4), HCl 0.1 M (pH 1.2), and NH4HCO3 0.1 M (pH 9.2) to a final concentration of 1 mg/mL. The solutions were kept under stirring (250 rpm) for 4h at 37 °C. The solutions were filtered ([…] PDVA filter) and analyzed by HPLC. DMSO solution 1 mg/mL was used as the control for 100% soluble.

[7] = Metabolic stability in rat liver microsomes; assay type: in vitro ADME
Method: The compound was incubated at 37 °C in the concentration of 20 μM with rat liver microsomal fractions in PBS solution at pH 7.4 solution. As previously described,[31] rat liver microsomal fractions were seeded by centrifugation at 9.000 × g. To the supernatant containing the postmithocondrial with cytosolic and membrane-bound enzymes, 4 μM 5-FI was added and incubated at 37 °C. The interaction between the compound in the incubation mixture and the enzyme containing NADPH at 1 mg/mL concentration was measured by HPLC-MS/MS technique to determine the in vitro compound consumption by the microsomal fractions at 0, 5, 15, and 30 min reaction (incubation) time. The intrinsic compound clearance was taken as the half-life, and the disappearance was compared with the positive control, verapamil(2 μM).

[8] = Parallel artificial membrane permeability assay (PAMPA); assay type: in vitro ADME; conditions: pH 7.4, 5 h
Method: 5-FI was quantified by HPLC-MS after a period of incubation and separated into two fractions by a permeable lipidic membrane. The result is expressed in velocity units of permeation (cm/s). The lipidic membrane is previously prepared with specific activation solutions that create a hydrophobic surface, simulating the intestinal epithelial tissue. To the donor aqueous phase (pH 7.4), 100 μM compound is added. To the previously prepared membrane is added the receptor aqueous phase (pH 7.4), and the mixture is incubated for 5h at room temperature with both receptor and donor aqueous phases in contact, separated just by the membrane. The compound transported by passive diffusion is measured by taking an aliquot of receptor solution and analyzing it by HPLC-MS/MS.

[9] = Chemical stability at pH 1.2, 7.4 and 9.1; assay type: physicochemical; conditions: 37 °C for 24 h
Method: The compounds to be tested were prepared in a 100 μM solution and incubated at 37 °C for 24 h in three solutions representing the physiologically relevant pHs to drug administration: pH 1.2 (stomach), pH 7.4 (plasma), and pH 9.2 (intestinal tissue). The compounds were quantified by HPLC-MS/MS. The chemical stability experiments were carried out in triplicates to ensure reproducibility. The results were presented as percentage, comparing the signal at time zero of the assay, considering this measure 100%, with measurements after the incubation time. Alprenolol was used as the analytical control (data not shown). The results were presented as the percentage, comparing the signal at time zero of the assay (100%) with the signal produced by concentrations after the incubation period.

[10] = SOS Chromotest ref 25; cited from earlier work
[11] = In vivo absorption assay: plasma concentration after gavage; conditions: 400 mg/kg, mice
[12] = Chemical stability in H2O at 37 °C, open and closed system (volatility assay)

Fc1ccc2[nH]ccc2c1 [Compound 1, 5-Fluoroindole]
MIC ([1]; most frequent value of three independent assays): 4.7 µM | MIC ([1]; Mycobacterium tuberculosis, H37RV): 0.63 µg/mL | CC50 at 72 h [2]: > 20 µM | cell viability / cytotoxicity in HepG2 (in words) [3]: not altered; also recorded: no cytotoxicity; also recorded: low cytotoxicity | CC50 at 72 h [4]: > 20 µM | cell viability / cytotoxicity in Vero (in words) [5]: not altered; also recorded: no cytotoxicity; also recorded: low cytotoxicity | solubility at 4 h ([6]; pH 1.2, simulated gastric fluid, 0.1 M HCl, read-out: aqueous solubility pH 1.2): > 550 µM | solubility at 4 h ([6]; pH 9.1, aqueous buffer, 0.1 M NH4HCO3, read-out: aqueous solubility pH 9.1): 2.2 µM (≈ 0.297 µg/mL) | solubility at 4 h ([6]; phosphate-buffered saline, pH 7.4, aqueous buffer, PBS, read-out: aqueous solubility pH 7.4): 3.5 µM (≈ 0.473 µg/mL) | CLint scaled ([7]; pH 7.4, read-out: metabolic stability Clint (intrinsic clearance)): 9 mL/min/kg | half-life ([7]; pH 7.4, read-out: metabolic stability t1/2 (half-life)): 2.4 h | Papp at 5 h, 100 μM [8]: 2.4 ×10⁻⁶ cm/s | chemical stability pH 1.2 ([9]; 0.1 M HCl): 37.2% | chemical stability pH 9.1 ([9]; 0.1 M NH4HCO3, listed as 5-FI): 99.2% | chemical stability pH 7.4 ([9]; PBS, listed as 5-FI): 58.5% | genotoxicity [10]: does not exhibit genotoxicity | concentration at 15 min ([11]; female, CF-1, mouse, in vivo, plasma concentration, mean ± SD, gavage 400 mg/kg, 15 min): 45.2 ± 14.8 µM | concentration at 30 min ([11]; female, CF-1, mouse, in vivo, plasma concentration, mean ± SD, gavage 400 mg/kg): 79.4 ± 19.4 µM | concentration at 30 min ([11]; female, CF-1, mouse, in vivo, po, plasma concentrations (range), oral 400 mg/kg, joint range over 5-FI and 5-FI.HCl): 79 to 82 µM | plasma concentrations (range) ([11]; gavage 400 mg/kg, joint range over 5-FI and 5-FI.HCl, 15 and 30 min, listed as 5-FI): 32.6 to 82.3 µM | chemical stability, closed system ([12]; 0 h): 100 ± 0.0% | chemical stability, open system ([12]; 0 h): 100 ± 0.0% | chemical stability, closed system ([12]; 1 h): 97.5 ± 0.1% | chemical stability, open system ([12]; 1 h): 97.5 ± 0.2% | chemical stability, closed system ([12]; 2 h): 95.2 ± 0.0% | chemical stability, open system ([12]; 2 h): 95.4 ± 0.2% | chemical stability, closed system ([12]; 4 h): 93.3 ± 0.1% | chemical stability, closed system ([12]; 6 h): 87.8 ± 0.0% | chemical stability, open system ([12]; 6 h): 88.9 ± 0.2% | chemical stability, closed system ([12]; 24 h): 86.1 ± 0.0% | chemical stability, open system ([12]; 24 h): 89.1 ± 0.2% | chemical stability, closed system ([12]; 48 h): 80.3 ± 0.1% | chemical stability, open system ([12]; 48 h): 85.5 ± 0.1%
